Results on three compounds are retold here after ChEMBL document CHEMBL1136378, “Novel 6,7-diphenyl-2,3,8,8a-tetrahydro-1H-indolizin-5-one analogues as cytotoxic agents” (Bioorg Med Chem Lett, 2003).

As usually defined, the Tmax is the time from dosing to the highest level. As usually defined, the Cmax is the highest concentration seen after dosing. A word on the GI50: it is the concentration at which growth is held to half of that of the control. Usually AUC stands for concentration integrated over time. Low readings indicate low exposure, high ones high exposure.

The nature of data set [1]: Tmax value was determined at a dose of 100 mg/kg (i.p.) in Mice. In kind it is ADME, organism-based. Set-up: dose 100 mg/kg, route intraperitoneal. The following applies: mouse, in vivo, ip.
Data set [2] in a line: Cmax value was determined at a dose of 100 mg/kg (i.p.) in Mice. Also noted: dose 100 mg/kg, route intraperitoneal. To be noted: mouse, in vivo, ip. Type of data set: ADME, organism-based.
The next data set relates to U-251. Briefly: In vitro cytotoxic activity tested against human CNS (U251) cell line. Type of data set: functional.
Data set [3] concerns SW-620. Briefly: In vitro cytotoxic activity tested against human colon cancer (SW620) cell line. In kind it is functional.
For data set [4], the system named is M14. As to the kind of experiment: In vitro cytotoxic activity was tested against human melanoma cancer (M14) cell line. Type of data set: functional.
Data set [5] has as its system SK-OV-3. As to the kind of experiment: In vitro cytotoxic activity tested against human ovarian cancer (SK-OV3) cell line. In kind it is functional.
For data set [6], the system named is DU-145. As to the kind of experiment: In vitro cytotoxic activity tested against human prostate cancer (DU145) cell line. In kind it is functional.
Data set [7] has as its system A498. As to the kind of experiment: In vitro cytotoxic activity was tested against human renal cancer (A498) cell line. Type of data set: functional.
Data set [8] is described as follows: Average growth inhibition against cell lines was calculated. Type of data set: functional.
A short description of data set [9]: Area under curve was determined at a dose of 100 mg/kg (i.p.) in Mice. Type of data set: ADME, organism-based. Also noted: dose 100 mg/kg, route intraperitoneal. The following applies: mouse, in vivo, ip.
The test system of data set [10] is NCI-H522. As to the kind of experiment: In vitro cytotoxic activity tested against human lung cancer (H-522) cell line.
The test system of data set [11] is NCI/ADR-RES. Briefly: In vitro cytotoxic activity tested against human breast cancer MCF/ADR cell line.
A short description of data set [12]: Tmax value was determined at a dose of 200 mg/kg (i.p.) in Mice. Type of data set: ADME, organism-based. Also noted: dose 200 mg/kg, route intraperitoneal. To be noted: mouse, in vivo, ip.
Data set [13] is described as follows: Cmax value was determined at a dose of 200 mg/kg (i.p.) in Mice. In kind it is ADME, organism-based. To be noted: mouse, in vivo, ip. Set-up: dose 200 mg/kg, route intraperitoneal.
A short description of data set [14]: Area under curve was determined at a dose of 200 mg/kg (i.p.) in Mice. In kind it is ADME, organism-based. Set-up: dose 200 mg/kg, route intraperitoneal. To be noted: mouse, in vivo, ip.
Data set [15] relates to A498. Briefly: In vitro cytotoxic activity against human renal cancer (A498) cell line. Type of data set: functional.
Data set [16] concerns DU-145. Briefly: In vitro cytotoxic activity against human prostate cancer (DU145) cell line. In kind it is functional.
Data set [17] deals with M14. Briefly: In vitro cytotoxic activity against human melanoma cancer (M14) cell line. Type of data set: functional.
The subject of data set [18] is NCI/ADR-RES. Briefly: In vitro cytotoxic activity against human breast cancer MCF/ADR cell line. In kind it is functional.
The test system of data set [19] is SK-OV-3. As to the kind of experiment: In vitro cytotoxic activity against human ovarian cancer (SK-OV3) cell line. In kind it is functional.
Data set [20] has as its system SW-620. As to the kind of experiment: In vitro cytotoxic activity against human colon cancer (SW620) cell line. Type of data set: functional.
The nature of data set [21]: Half life beta(2,4,6,8h) value was determined at a dose of 200 mg/kg (i.p.) in Mice. In kind it is ADME, organism-based. Set-up: dose 200 mg/kg, route intraperitoneal. To be noted: mouse, in vivo, ip, read-out: T1/2 beta (converted).
Data set [22] deals with NCI-H522. As to the kind of experiment: In vitro cytotoxic activity against human lung cancer (H-522) cell line.

For the compound `CSc1ccc(C2=C(c3ccc(F)c(F)c3)C(=O)N3CCCC3C2)cc1` (stereo not drawn), the Tmax in [1] was 17.4 min. Also, in [2], the highest level (Cmax) was 3.61 µM. The GI50 is 15000 nM in the data set on U-251; 200 nM with SW-620 [3]; 300 nM in the data set with M14 [4]; 100 nM in the data set with SK-OV-3 [5]; 500 nM with DU-145 [6]; 100 nM with A498 [7]. Moreover, the GI50 in [8] is 2100 nM; in the data set with NCI-H522 [10], 200 nM; with NCI/ADR-RES [11], 800 nM. The compound also registered an AUC in [9] of 6.92 µM·h.
Turning to `CSc1ccc(C2=C(c3ccc(C(F)(F)F)cc3)C(=O)N3CCCC3C2)cc1` (stereo not drawn), the Tmax in data set [12] amounted to 15 min. Besides, the Cmax in [13] came out at 3.79 µM. The exposure (AUC) in data set [14] was found to be 10.7 µM·h. For the same compound, the GI50 is 20000 nM in the data set with A498 [15]; 800 nM in the data set on U-251; 700 nM in the data set with DU-145 [16]; 12000 nM in the data set on M14 [17]; 800 nM with NCI/ADR-RES [18]; 15000 nM with SK-OV-3 [19]. For the same compound, the 50% growth inhibitory concentration (GI50) in the data set with SW-620 [20] is 800 nM; in [8], 6300 nM; in the data set with NCI-H522 [22], 800 nM. In addition, the half-life in data set [21] is 160 min.
For `CSc1ccc(C2=C(c3ccc(C)cc3)C(=O)N3CCCC3C2)cc1` (stereo not drawn), the Tmax in data set [12] came to 15 min. Also, the peak level in data set [13] (Cmax) was 8.02 µM. Also, in data set [14], the area under the curve (AUC) is 38.5 µM·h. For the same compound, the GI50 was determined as 400 nM in the data set on U-251; 3000 nM in the data set on SW-620 [3]; 6000 nM with M14 [4]; 9000 nM with SK-OV-3 [5]; 600 nM in the data set on DU-145 [6]; 4000 nM in the data set with A498 [7]. The GI50 in [8] is 3000 nM; in the data set with NCI-H522 [10], 900 nM; in the data set on NCI/ADR-RES [11] it was 600 nM. Also, the half-life in data set [21] was 374 min.
